According to patent US12030878B2 (BRISTOL-MYERS SQUIBB COMPANY, priority 2017, dated 2024):

Tests used:
Assay type in all cases: cell-based
human TLR7 = molecular target: T1, human TLR7 (Homo sapiens, UniProt Q9NYK1); assay: TLR7 inhibition reporter assay (HEK-Blue SEAP); details: HEK-Blue cells overexpressing human TLR7, stimulated with gardiquimod 7.5 μM, 22 hour incubation
T1 construct: host or cells: HEK-Blue cells
T1 sequence (Q9NYK1 27-1049): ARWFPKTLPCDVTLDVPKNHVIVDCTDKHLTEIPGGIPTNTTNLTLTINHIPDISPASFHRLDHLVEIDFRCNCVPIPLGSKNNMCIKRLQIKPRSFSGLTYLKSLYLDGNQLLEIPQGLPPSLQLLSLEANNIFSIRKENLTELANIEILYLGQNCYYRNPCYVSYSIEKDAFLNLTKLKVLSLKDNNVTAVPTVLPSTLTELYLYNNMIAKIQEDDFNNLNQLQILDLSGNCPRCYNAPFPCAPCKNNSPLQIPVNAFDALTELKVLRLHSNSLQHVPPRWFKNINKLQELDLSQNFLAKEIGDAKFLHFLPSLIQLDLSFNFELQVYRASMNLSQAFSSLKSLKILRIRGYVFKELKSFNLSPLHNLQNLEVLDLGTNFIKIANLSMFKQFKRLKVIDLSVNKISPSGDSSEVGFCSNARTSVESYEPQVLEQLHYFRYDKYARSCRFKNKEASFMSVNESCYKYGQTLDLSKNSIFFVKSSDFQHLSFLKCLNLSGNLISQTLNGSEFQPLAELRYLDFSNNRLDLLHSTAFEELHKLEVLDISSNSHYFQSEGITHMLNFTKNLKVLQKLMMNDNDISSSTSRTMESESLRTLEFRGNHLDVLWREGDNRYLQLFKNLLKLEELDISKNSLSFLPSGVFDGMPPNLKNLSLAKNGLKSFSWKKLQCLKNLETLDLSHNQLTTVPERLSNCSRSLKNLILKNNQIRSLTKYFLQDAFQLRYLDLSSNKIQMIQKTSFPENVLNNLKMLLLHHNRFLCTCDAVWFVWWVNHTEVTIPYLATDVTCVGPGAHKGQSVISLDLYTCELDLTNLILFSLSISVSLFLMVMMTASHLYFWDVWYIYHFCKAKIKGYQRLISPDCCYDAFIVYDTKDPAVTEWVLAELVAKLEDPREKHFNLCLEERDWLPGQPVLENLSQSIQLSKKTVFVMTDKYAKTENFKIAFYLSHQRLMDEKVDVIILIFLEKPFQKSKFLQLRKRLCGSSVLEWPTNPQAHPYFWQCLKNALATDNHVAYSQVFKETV
Outline: (§1)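 SEAP read-out via HEK-Blue Detection medium after 22 h at 37 °C; percent inhibition relative to agonist-plus-DMSO and known-inhibitor wells. Agonists: TLR7 gardiquimod 7.5 μM, TLR8 R848 15.9 μM, TLR9 ODN2006 5 nM. Dose range 0.05 nM–50 μM, 30 min compound pre-treatment at RT.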

human TLR9 = molecular target: T2, human TLR9 (Homo sapiens, UniProt Q9NR96); assay: TLR9 inhibition reporter assay (HEK-Blue SEAP); details: HEK-Blue cells overexpressing human TLR9, stimulated with ODN2006 5 nM, 22 hour incubation
T2 construct: host or cells: HEK-Blue cells
T2 sequence (Q9NR96 26-1032): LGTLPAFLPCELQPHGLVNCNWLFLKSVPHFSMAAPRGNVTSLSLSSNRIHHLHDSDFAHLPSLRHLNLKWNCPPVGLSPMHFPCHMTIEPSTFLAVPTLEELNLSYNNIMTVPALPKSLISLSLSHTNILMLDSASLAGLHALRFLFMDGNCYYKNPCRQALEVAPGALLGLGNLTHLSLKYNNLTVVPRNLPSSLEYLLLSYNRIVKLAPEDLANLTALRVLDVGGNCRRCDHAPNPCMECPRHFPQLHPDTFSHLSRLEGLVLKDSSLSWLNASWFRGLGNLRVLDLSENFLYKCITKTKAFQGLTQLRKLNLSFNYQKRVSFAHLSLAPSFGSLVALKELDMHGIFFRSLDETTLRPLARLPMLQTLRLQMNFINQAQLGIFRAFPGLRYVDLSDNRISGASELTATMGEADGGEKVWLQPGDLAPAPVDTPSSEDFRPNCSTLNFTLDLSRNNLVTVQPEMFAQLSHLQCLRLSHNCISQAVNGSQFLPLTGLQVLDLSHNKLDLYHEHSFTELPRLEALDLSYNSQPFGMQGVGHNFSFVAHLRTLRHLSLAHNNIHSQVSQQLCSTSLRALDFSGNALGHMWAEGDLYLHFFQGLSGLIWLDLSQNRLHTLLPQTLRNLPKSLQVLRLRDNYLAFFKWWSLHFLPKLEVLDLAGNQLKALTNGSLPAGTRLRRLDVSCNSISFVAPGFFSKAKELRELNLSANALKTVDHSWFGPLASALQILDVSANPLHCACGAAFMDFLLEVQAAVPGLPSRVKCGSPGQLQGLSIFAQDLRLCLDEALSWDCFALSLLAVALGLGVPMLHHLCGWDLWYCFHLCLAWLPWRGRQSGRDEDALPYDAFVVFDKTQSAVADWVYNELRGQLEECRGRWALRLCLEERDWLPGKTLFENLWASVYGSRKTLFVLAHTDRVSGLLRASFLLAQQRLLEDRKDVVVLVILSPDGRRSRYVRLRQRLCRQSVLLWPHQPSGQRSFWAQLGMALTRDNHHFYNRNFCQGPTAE
Outline: as §1

human TLR8 = molecular target: T3, human TLR8 (Homo sapiens, UniProt Q9NR97); assay: TLR8 inhibition reporter assay (HEK-Blue SEAP); details: HEK-Blue cells overexpressing human TLR8, stimulated with R848 15.9 μM, 22 hour incubation
T3 construct: host or cells: HEK-Blue cells
T3 sequence (Q9NR97 27-1041): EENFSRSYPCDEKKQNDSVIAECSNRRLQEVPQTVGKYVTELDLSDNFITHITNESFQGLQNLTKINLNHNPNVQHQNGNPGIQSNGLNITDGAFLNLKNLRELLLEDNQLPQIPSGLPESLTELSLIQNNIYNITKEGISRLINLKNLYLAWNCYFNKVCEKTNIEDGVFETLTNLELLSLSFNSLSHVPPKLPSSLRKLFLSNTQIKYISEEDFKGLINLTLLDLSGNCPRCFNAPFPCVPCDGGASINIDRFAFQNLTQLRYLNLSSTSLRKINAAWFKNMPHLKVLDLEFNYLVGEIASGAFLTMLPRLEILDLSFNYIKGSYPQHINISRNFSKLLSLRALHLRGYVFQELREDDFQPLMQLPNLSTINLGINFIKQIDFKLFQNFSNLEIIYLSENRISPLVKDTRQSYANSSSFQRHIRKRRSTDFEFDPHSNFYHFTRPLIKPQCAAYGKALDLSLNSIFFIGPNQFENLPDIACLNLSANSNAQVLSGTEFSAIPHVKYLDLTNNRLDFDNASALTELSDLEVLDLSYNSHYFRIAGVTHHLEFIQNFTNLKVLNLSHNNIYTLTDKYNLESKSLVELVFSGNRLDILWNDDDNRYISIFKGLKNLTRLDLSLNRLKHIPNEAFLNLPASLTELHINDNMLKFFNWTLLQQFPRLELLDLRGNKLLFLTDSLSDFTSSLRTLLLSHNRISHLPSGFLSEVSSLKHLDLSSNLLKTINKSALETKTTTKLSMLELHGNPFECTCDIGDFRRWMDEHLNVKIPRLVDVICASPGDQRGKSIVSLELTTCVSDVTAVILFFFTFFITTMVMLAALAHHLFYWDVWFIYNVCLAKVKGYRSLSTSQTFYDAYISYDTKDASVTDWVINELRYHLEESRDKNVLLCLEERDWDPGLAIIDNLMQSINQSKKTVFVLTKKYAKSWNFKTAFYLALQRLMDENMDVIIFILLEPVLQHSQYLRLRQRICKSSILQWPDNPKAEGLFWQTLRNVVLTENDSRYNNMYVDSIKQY
Outline: as §1

| Structure (SMILES) | IC50 (human TLR7) [µM] | IC50 (human TLR9) [µM] | IC50 (human TLR8) [µM] |
| --- | --- | --- | --- |
| Cc1c(-c2[nH]c3ccc(OC4CCN(C5COC5)CC4)cc3c2C(C)C)cn(C)c(=O)c1C [Example 50, 5-(3-isopropyl-5-((1-(oxetan-3-yl)piperidin-4-yl)oxy)-1H-indol-2-yl)-1,3,4-trimethylpyridin-2(1H)-one] | 0.123 | > 50 | 0.0213 |
| COCCN1CCC(COc2ccc3[nH]c(-c4cc(C)nc(C)c4)c(C(C)C)c3c2)CC1 [Example 73, 2-(2,6-dimethylpyridin-4-yl)-3-isopropyl-5-((1-(2-methoxyethyl)piperidin-4-yl)methoxy)-1H-indole] | 0.0134 | 0.633 | 0.0052 |
| Cc1cc(-c2[nH]c3ccc(OCC4CCN(C5CCOCC5)CC4)cc3c2C(C)C)cn2ncnc12 [Example 44, 6-(3-isopropyl-5-((1-(tetrahydro-2H-pyran-4-yl)piperidin-4-yl)methoxy)-1H-indol-2-yl)-8-methyl-[1,2,4]triazolo[1,5-a]pyridine] | 0.0006 | 1.03 | 0.0014 |
| Cc1cc(-c2[nH]c3ccc(OC4CCNCC4)cc3c2C(C)C)cn(C)c1=O [Example 11, 5-(3-isopropyl-5-(piperidin-4-yloxy)-1H-indol-2-yl)-1,3-dimethylpyridin-2(1H)-one] | 0.0028 | 1.92 | 0.0021 |
| CNC(=O)CN1CCC(COc2ccc3[nH]c(-c4cc(C)c(=O)n(C)c4)c(C(C)C)c3c2)CC1 [Example 111, 2-(4-(((2-(1,5-dimethyl-6-oxo-1,6-dihydropyridin-3-yl)-3-isopropyl-1H-indol-5-yl)oxy)methyl)piperidin-1-yl)-N-methylacetamide] | 0.0142 | 46.8 | 0.0068 |
| Cc1cc(-c2[nH]c3ccc(OCC4CCN(CCS(C)(=O)=O)CC4)cc3c2C(C)C)cn2ncnc12 [Example 91, 6-(3-isopropyl-5-((1-(2-(methylsulfonyl)ethyl)piperidin-4-yl)methoxy)-1H-indol-2-yl)-8-methyl-[1,2,4]triazolo[1,5-a]pyridine] | 0.0007 | 9.58 | 0.001 |
| COc1ccc(-c2[nH]c3ccc(OCC(=O)NCC4CCCCN4)cc3c2C(C)C)cc1OC (stereo not drawn) [Example 126, 2-((2-(3,4-dimethoxyphenyl)-3-isopropyl-1H-indol-5-yl)oxy)-N-(piperidin-2-ylmethyl)acetamide] | 0.111 | 1.9 | 0.0128 |
| Cc1cc(-c2[nH]c3ccc(OCC4CCN(CC(C)(C)O)CC4)cc3c2C(C)C)cc(C)n1 [Example 24, 1-(4-(((2-(2,6-dimethylpyridin-4-yl)-3-isopropyl-1H-indol-5-yl)oxy)methyl)piperidin-1-yl)-2-methylpropan-2-ol] | 0.0043 | 0.3 | 0.003 |
| Cc1cc(-c2[nH]c3ccc(OCC(=O)NC[C@@H](F)C(C)(C)O)cc3c2C(C)C)ccn1 [Example 152, (R)—N-(2-fluoro-3-hydroxy-3-methylbutyl)-2-((3-isopropyl-2-(2-methylpyridin-4-yl)-1H-indol-5-yl)oxy)acetamide] | 1 | > 50 | 0.774 |
| COc1ccc(-c2[nH]c3ccc(OCC(=O)N[C@@H]4CCCC[C@H]4N)cc3c2C(C)C)cc1OC [Example 130, N-((1R,2R)-2-aminocyclohexyl)-2-((2-(3,4-dimethoxyphenyl)-3-isopropyl-1H-indol-5-yl)oxy)acetamide] | 0.398 | 2.06 | 0.0187 |
| CCc1c(-c2ccnc(C)c2)[nH]c2ccc(OC3CCN(C)CC3)cc12 [Example 189, 3-ethyl-5-((1-methylpiperidin-4-yl)oxy)-2-(2-methylpyridin-4-yl)-1H-indole] | 0.166 | 1.08 | 0.0065 |
| Cc1cc(-c2[nH]c3ccc(OCC4CN(C(C)C)C4)cc3c2C(C)C)cn2ncnc12 [Example 58, 6-(3-isopropyl-5-((1-isopropylazetidin-3-yl)methoxy)-1H-indol-2-yl)-8-methyl-[1,2,4] triazolo[1,5-a]pyridine] | 0.0014 | 2.44 | 0.0051 |
| CCCN1CCC(COc2ccc3[nH]c(-c4cn5cnnc5c(C)c4C)c(C(C)C)c3c2)CC1 [Example 62, 6-(3-isopropyl-5-((1-propylpiperidin-4-yl)methoxy)-1H-indol-2-yl)-7,8-dimethyl-[1,2,4]triazolo[4,3-a]pyridine] | 0.001 | 1.29 | 0.006 |
| CCc1c(-c2ccc(OC)c(OC)c2)[nH]c2ccc(OC3CCN(C4CCN(CC(C)C)CC4)CC3)cc12 [Example 118, 2-(3,4-dimethoxyphenyl)-3-ethyl-5-((1′-isobutyl-[1,4′-bipiperidin]-4-yl)oxy)-1H-indole] | 0.38 | 0.309 | 0.009 |
